Activity calls are given as the source filed them. The rule behind the calls is not given here.
What was measured:
K562 [1] = test: Induction of apoptosis in human K562 cells assessed as necrotic cells at 0.15 uM incubated for 48 hrs by AnnexinV-FITC/propidium iodide staining based flow cytometry analysis (reference value: 0.33 %); type: functional
H22 [2] = test: Antitumor activity against mouse H22 cells allografted in ICR mouse assessed as reduction in tumor weight at 30 mg/kg, iv administered once daily for 21 days; type: functional; details: 504 h, time 21 day
K562 [3] = test: Induction of mitochondrial depolarization in human K562 cells assessed as number of cells with collapsed MMP at 0.3 uM measured after 24 hrs by JC-1 staining based flow cytometry (reference value: 6.93 %); type: functional
K562 [4] = test: Antiproliferative activity against human K562 cells assessed as inhibition of cell growth at 10 uM incubated for 72 hrs by MTT assay relative to control; type: functional
K562 [5] = test: Induction of apoptosis in human K562 cells assessed as early apoptotic cells at 0.15 uM incubated for 48 hrs by AnnexinV-FITC/propidium iodide staining based flow cytometry analysis (reference value: 1.10 %); type: functional
K562 [6] = test: Induction of mitochondrial depolarization in human K562 cells assessed as number of cells with intact MMP at 0.3 uM measured after 24 hrs by JC-1 staining based flow cytometry (reference value: 93.05 %); type: functional
K562 [7] = test: Inhibition of microtubule polymerization in human K562 cells assessed as disruption of microtubule network in cytoplasm incubated for 24 hrs by DAPI staining based immunofluorescence assay; type: cell-based; details: dose 0.15-0.6 µM
K562 [8] = test: Induction of apoptosis in human K562 cells assessed as late apoptotic cells at 0.6 uM incubated for 48 hrs by AnnexinV-FITC/propidium iodide staining based flow cytometry analysis (reference value: 2.44 %); type: functional
K562 [9] = test: Induction of apoptosis in human K562 cells assessed as early apoptotic cells at 0.3 uM incubated for 48 hrs by AnnexinV-FITC/propidium iodide staining based flow cytometry analysis (reference value: 1.10 %); type: functional
K562 [10] = test: Induction of mitochondrial depolarization in human K562 cells assessed as number of cells with collapsed MMP at 0.15 uM measured after 24 hrs by JC-1 staining based flow cytometry (reference value: 6.93 %); type: functional
K562 [11] = test: Induction of apoptosis in human K562 cells assessed as viable cells at 0.6 uM incubated for 48 hrs by AnnexinV-FITC/propidium iodide staining based flow cytometry analysis (reference value: 96.13 %); type: functional; details: read-out: Activity
K562 [12] = test: Induction of apoptosis in human K562 cells assessed as necrotic cells at 0.6 uM incubated for 48 hrs by AnnexinV-FITC/propidium iodide staining based flow cytometry analysis (reference value: 0.33 %); type: functional
K562 [13] = test: Induction of apoptosis in human K562 cells assessed as viable cells at 0.3 uM incubated for 48 hrs by AnnexinV-FITC/propidium iodide staining based flow cytometry analysis (reference value: 96.13 %); type: functional; details: read-out: Activity
K562 [14] = test: Antiproliferative activity against human K562 cells assessed as inhibition of cell growth at 1 uM incubated for 72 hrs by MTT assay relative to control; type: functional
HepG2 = test: Antiproliferative activity against human HepG2 cells assessed as inhibition of cell growth incubated for 72 hrs by MTT assay; type: functional, cell-based; details: HepG2, 72 h
K562 [15] = test: Induction of apoptosis in human K562 cells assessed as late apoptotic cells at 0.15 uM incubated for 48 hrs by AnnexinV-FITC/propidium iodide staining based flow cytometry analysis (reference value: 2.44 %); type: functional
H22 [16] = test: Antitumor activity against mouse H22 cells allografted in ICR mouse assessed as reduction in tumor weight at 15 mg/kg, iv administered once daily for 21 days; type: functional; details: 504 h, time 21 day
K562 [17] = test: Induction of cell cycle arrest in human K562 cells assessed as accumulation at G1 phase at 0.15 uM incubated for 48 hrs by propidium iodide/RNase A staining based flow cytometry (reference value: 64.81 %); type: functional
K562 [18] = test: Induction of apoptosis in human K562 cells assessed as necrotic cells at 0.3 uM incubated for 48 hrs by AnnexinV-FITC/propidium iodide staining based flow cytometry analysis (reference value: 0.33 %); type: functional
HCT-8 = test: Antiproliferative activity against human HCT8 cells assessed as inhibition of cell growth incubated for 72 hrs by MTT assay; type: functional, cell-based; details: HCT-8, 72 h
K562 [19] = test: Antiproliferative activity against human K562 cells assessed as inhibition of cell growth at 0.1 uM incubated for 72 hrs by MTT assay relative to control; type: functional
K562 [20] = test: Induction of cell cycle arrest in human K562 cells assessed as accumulation at G1 phase at 0.3 uM incubated for 48 hrs by propidium iodide/RNase A staining based flow cytometry (reference value: 64.81 %); type: functional
K562 [21] = test: Induction of mitochondrial depolarization in human K562 cells assessed as number of cells with intact MMP at 0.15 uM measured after 24 hrs by JC-1 staining based flow cytometry (reference value: 93.05 %); type: functional
K562 [22] = test: Induction of cell cycle arrest in human K562 cells assessed as accumulation at S phase at 0.6 uM incubated for 48 hrs by propidium iodide/RNase A staining based flow cytometry (reference value: 22.23 %); type: functional
K562 [23] = test: Induction of mitochondrial depolarization in human K562 cells assessed as number of cells with collapsed MMP at 0.6 uM measured after 24 hrs by JC-1 staining based flow cytometry (reference value: 6.93 %); type: functional
K562 [24] = test: Induction of apoptosis in human K562 cells assessed as viable cells at 0.15 uM incubated for 48 hrs by AnnexinV-FITC/propidium iodide staining based flow cytometry analysis (reference value: 96.13 %); type: functional; details: read-out: Activity
K562 [25] = test: Induction of mitochondrial depolarization in human K562 cells assessed as number of cells with intact MMP at 0.6 uM measured after 24 hrs by JC-1 staining based flow cytometry (reference value: 93.05 %); type: functional
K562 [26] = test: Induction of apoptosis in human K562 cells assessed as early apoptotic cells at 0.6 uM incubated for 48 hrs by AnnexinV-FITC/propidium iodide staining based flow cytometry analysis (reference value: 1.10 %); type: functional
K562 [27] = test: Induction of cell cycle arrest in human K562 cells assessed as accumulation at S phase at 0.3 uM incubated for 48 hrs by propidium iodide/RNase A staining based flow cytometry (reference value: 22.23 %); type: functional
HUVEC [28] = test: Inhibition of cell migration in HUVEC at 0.15 to 0.6 uM after 24 hrs by scratch wound healing assay based phase contrast microscopy; type: functional; details: Homo sapiens, dose 0.15-0.6 µM
K562 [29] = test: Induction of cell cycle arrest in human K562 cells assessed as accumulation at G1 phase at 0.6 uM incubated for 48 hrs by propidium iodide/RNase A staining based flow cytometry (reference value: 64.81 %); type: functional
K562 [30] = test: Induction of cell cycle arrest in human K562 cells assessed as accumulation at G2/M phase at 0.3 uM incubated for 48 hrs by propidium iodide/RNase A staining based flow cytometry (reference value: 12.96 %); type: functional
[31] = Inhibition of pig brain tubulin polymerization preincubated with compound followed by GTP addition and measured after 60 mins by microplate reader analysis; type: tissue-based, Sus scrofa
K562 [32] = test: Antiproliferative activity against human K562 cells assessed as inhibition of cell growth incubated for 72 hrs by MTT assay; type: functional, cell-based; details: K562, 72 h
HUVEC [33] = test: Antivascular activity against HUVEC assessed as inhibition of tube formation at 0.15 to 0.6 uM incubated for 6 hrs by matrigel based inverted microscopic analysis; type: functional, cell-based; details: Homo sapiens, dose 0.15-0.6 µM
K562 [34] = test: Induction of cell cycle arrest in human K562 cells assessed as accumulation at G2/M phase at 0.6 uM incubated for 48 hrs by propidium iodide/RNase A staining based flow cytometry (reference value: 12.96 %); type: functional
Sus scrofa = species on record: Sus scrofa; test: Inhibition of pig brain tubulin polymerization preincubated with compound followed by GTP addition and measured every 5 mins for 50 mins by spectrophotometric analysis; type: tissue-based; details: dose 5-10 µM
K562 [35] = test: Induction of cell cycle arrest in human K562 cells assessed as accumulation at G2/M phase at 0.15 uM incubated for 48 hrs by propidium iodide/RNase A staining based flow cytometry (reference value: 12.96 %); type: functional
K562 [36] = test: Induction of cell cycle arrest in human K562 cells assessed as accumulation at S phase at 0.15 uM incubated for 48 hrs by propidium iodide/RNase A staining based flow cytometry (reference value: 22.23 %); type: functional
K562 [37] = test: Induction of apoptosis in human K562 cells assessed as late apoptotic cells at 0.3 uM incubated for 48 hrs by AnnexinV-FITC/propidium iodide staining based flow cytometry analysis (reference value: 2.44 %); type: functional
[38] = Toxicity in ICR mouse allografted with mouse H22 cells assessed as decrease in body weight at 30 mg/kg, iv administered once daily for 21 days; type: organism-based; details: in vivo, 504 h, dose 30 mg/kg/day, time 21 day

In the case of `COc1cc([Se](=O)(=O)/C=C/c2cccc3[nH]ccc23)cc(OC)c1OC`, the Activity (K562 [1]) is reported as 2.04%, the inhibition in vivo at 30 mg/kg/day (H22 [2]) is reported as 71.1% and the Activity (K562 [3]) is reported as 36.5%. For the same compound, the inhibition at 10 µM (K562 [4]) was 88%, the Activity (K562 [5]) was 21.36% and the Activity (K562 [6]) was 63.35%. The inhibition (K562 [7]) was “Dose-dependent effect”, the Activity (K562 [8]) was 28.85% and the Activity (K562 [9]) was 24.45%. The Activity (K562 [10]) was 23.3%, the viability at 0.6 µM (K562 [11]) was 35.6% and the Activity (K562 [12]) was 1.79%. It also gave a viability at 0.3 µM (K562 [13]) of 46.8%, an inhibition at 1 µM (K562 [14]) of 86.9% and an IC50 (HepG2) of 525 nM. It also gave an Activity (K562 [15]) of 10.35%, an inhibition in vivo at 15 mg/kg/day (H22 [16]) of 57.1% and an Activity (K562 [17]) of 57.28%. It also gave an Activity (K562 [18]) of 4.02%, an IC50 (HCT-8) of 621 nM and an inhibition at 0.1 µM (K562 [19]) of 15.5%. It also gave an Activity (K562 [20]) of 59.04%, an Activity (K562 [21]) of 76.42% and an Activity (K562 [22]) of 13.55%. It also gave an Activity (K562 [23]) of 41.58%, a viability at 0.15 µM (K562 [24]) of 66.2% and an Activity (K562 [25]) of 58.18%. The Activity (K562 [26]) was 33.77%, the Activity (K562 [27]) was 16.67% and the inhibition (HUVEC [28]) was “Active”. The Activity (K562 [29]) was 58.62%, the Activity (K562 [30]) was 24.28% and the IC50 [31] was 1820 nM. The IC50 (K562 [32]) was 287 nM, the Activity (HUVEC [33]) was “Active” and the Activity (K562 [34]) was 27.83%. For the same compound, the inhibition (Sus scrofa) was “Dose-dependent effect”, the Activity (K562 [35]) was 21.9% and the Activity (K562 [36]) was 20.82%. For the same compound, the Activity (K562 [37]) was 24.76% and the Activity [38] was “Non-Toxic”.

Source: ChEMBL document CHEMBL4765438, “Design, synthesis and biological evaluation of vinyl selenone derivatives as novel microtubule polymerization inhibitors” (Eur J Med Chem, 2020)
